# In patent US20260294885A1, “TREATMENT OF INFLAMMATORY CONDITIONS COMPRISING IMU-856” (IMMUNIC AG, priority 2023, published 2026):
# Entries after “also recorded” stand apart in the source; their conditions may differ.
# Assays:
# [1] = target: SIRT6 (Homo sapiens, UniProt Q8N6T7); test: Inhibition of SIRT6 deacetylation of acetylated H3K56, in vitro cell free; type: biochemical
# [2] = tested on: healthy subjects and patients with CelD; test: Clinical safety, whole study; type: in vivo, human
# Procedure: In Part A, healthy subjects were randomised to single ascending doses of IMU-856 (10 mg to 160 mg) or placebo. In Part B healthy subjects were randomised to multiple once-daily doses of IMU-856 (40, 80, and 160 mg) or placebo for 14 days. Part C randomised patients with celiac disease who were on a gluten-free diet to multiple once-daily doses of IMU-856 (80 mg and 160 mg) or placebo for 28 days; a once-daily gluten challenge (6 g) was introduced on Day 14 and ended on Day 28. 71 healthy subjects were enrolled in Part A and B (N=19 placebo and N=52 IMU-856) and 43 patients with CelD in Part C (N=14 placebo; N=14 for 80 mg, and N=15 for 160 mg). In Parts A and B, treatment-emergent adverse events (TEAEs) occurred in 24 (73%) and 15 (79%) of subjects receiving any dose of IMU-856 compared to 6 (50%) and 5 (71%) with placebo, respectively. […] In Part C, the most common adverse events with any dose of IMU-856 by preferred term were headache (13 [45%]), nausea (9 [31%]), diarrhoea (8 [28%]), and abdominal distension (7 [24%]). […] In Part C, the mean change in villous height from baseline to Day 29 with 80 mg and 160 mg was −20.9±34.8 μm, and −22.5±51.1 μm, respectively, and −60.3±52.2 μm with placebo. […] Mean change in plasma citrulline increased with 80 mg and 160 mg from baseline to Day 14 (2.4±6.2 and 6.1±5.9 μmol/L, respectively) and from baseline to Day 29 (2.8±7.6 and 2.2±5.3 μmol/L, respectively), but not with placebo (−2.7±5.6 and −4.0±6.5 μmol/L). […] Mean increase in zinc levels from baseline to Day 29 with 80 mg and 160 mg were 0.3±1.4 and 0.9±2.1 μmol/L compared to a mean decrease in placebo (−0.9±2.1 μmol/L). Gluten-induced symptoms were also attenuated by IMU-856.
# [3] = tested on: patients with celiac disease; test: Mean corpuscular hemoglobin concentration, Part C; type: in vivo, human; conditions: Baseline to Day 29
# Text: Since hemoglobin is the molecule to which oxygen attaches, MCHC is a measure of the average oxygen-carrying capacity of the red blood cells in circulating the body (https://www.verywellhealth.com/mean-cell-hemoglobin-concentration-4584155).
# [4] = tested on: sirtuin 6 protein (SIRT6); test: SIRT6 protein stabilization
# Chain of SIRT6 (Q8N6T7 whole entry): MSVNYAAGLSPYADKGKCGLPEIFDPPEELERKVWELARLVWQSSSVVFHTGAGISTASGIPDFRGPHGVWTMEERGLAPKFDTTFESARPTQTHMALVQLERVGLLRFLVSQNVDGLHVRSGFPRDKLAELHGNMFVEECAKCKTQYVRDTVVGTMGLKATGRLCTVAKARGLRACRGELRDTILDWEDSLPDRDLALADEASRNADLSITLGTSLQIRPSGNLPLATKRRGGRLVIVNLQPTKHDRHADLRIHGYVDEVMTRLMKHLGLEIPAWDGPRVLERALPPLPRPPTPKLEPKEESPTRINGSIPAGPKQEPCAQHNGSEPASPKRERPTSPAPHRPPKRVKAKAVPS
smiles,measurement,setting,value
"Cn1c(COc2cc(C(F)(F)F)ccn2)nnc1[C@H]1CC[C@H](c2cnn([C@H]3CC[C@H](N4CC5(CCO5)C4)CC3)c2)CC1 [IMU-856, 6-(trans-4-(4-(trans-4-(4-methyl-5-(((4-(trifluoromethyl)pyridin-2-yl)oxy)methyl)-4H-1,2,4-triazol-3-yl)cyclohexyl)-1H-pyrazol-1-yl)cyclohexyl)-1-oxa-6-azaspiro[3.3]heptane]",inhibition of deacetylase activity of SIRT6,[1],selective inhibitor of the deacetylase activity
same,deacetylation of H3K56,[1]; in vitro cell free system,prevents the deacetylation
same,IMP-related serious or treatment-emergent adverse events,"[2]; human, in vivo",no investigational medicinal product (IMP)-related serious or treatment-emergent adverse events
same,dose-dependency in adverse events,"[2]; human, in vivo",nor was there any dose-dependency in adverse events
same,rates of TEAEs in non-disease related parameters versus placebo,"[2]; human, in vivo",comparable between the active treatment groups and placebo
same,safety and tolerability,"[2]; human, in vivo",safe and well-tolerated
same,"dose-limiting toxicities, systematic safety laboratory changes or deaths",[2]; whole study,"No dose-limiting toxicities, systematic safety laboratory changes or deaths"
same,relation of serious adverse events to IMU-856,[2]; whole study,unrelated to IMU-856
same,serious adverse events,[2]; whole study,Two
same,mean corpuscular hemoglobin concentration (MCHC),[3],higher mean corpuscular hemoglobin concentration; also recorded: improvement in red blood cell function
same,stabilization of sirtuin 6 protein,[4],stabilizer
